These are literature values, as cited in patent publication US20130331260A1, “Odour-Control Superabsorbent” (BASF SE, priority 2012, published 2013).

Series [1] deals with seed germination in urea-based fertiliser.

Consider `NP(N)(=O)NC(=O)c1ccc(F)cc1` [fluorofamide, N-[Diaminophosphinyl]-4-fluorobenzamide], for which the antibacterial properties result in the series with Helicobacter sp. is on record as “no measurable antibacterial properties”. Moreover, the “effect on seed germination compared with non-fluorinated analogue” value in series [1] was “worked better than its non-fluorinated analogue in most cases”.
